According to patent publication US9376391B2, “Difluoromethyl-nicotinic-tetrahydronaphthyl carboxamides as fungicides” (BAYER CROPSCIENCE AKTIENGESELLSCHAFT, priority 2012, dated 2016):
One block for each compound: values may come before it.

Experiments:
Botrytis cinerea = test: In vivo preventive test on Botrytis cinerea (grey mould), gherkin plants; conditions: gherkin, spray, graded 4 to 5 days after contamination vs control plants
Protocol: In Vivo Preventive Test on Botrytis cinerea (Grey Mould)
(§1) The active ingredients tested are prepared by homogenization in a mixture of acetone/tween/DMSO and then diluted with water to obtain the desired active material concentration.
(§2) Gherkin plants (“Vert petit de Paris” variety), sown in starter cups on a 50/50 peat soil-pozzolana substrate and grown at 24° C., are treated at the Z11 cotyledon stage by spraying with the active ingredient prepared as described above. Plants, used as controls, are treated with the mixture of acetone/tween/DMSO/water not containing the active material.
After 24 hours, the plants are contaminated by spraying the cotyledons with an aqueous suspension of cryopreserved Botrytis cinerea spores (50 000 spores per ml). The spores are suspended in a nutrient solution composed of 10 g/L of PDB, 50 g/L of D-Fructose, 2 g/L of NH4NO3 and 1 g/L of KH2PO4. The contaminated gherkin plants are incubated at 17° C. and at 90% relative humidity.
Grading (% of efficacy) is carried out 4 to 5 days after the contamination, in comparison with the control plants.

Sphaerotheca fuliginea = test: In vivo preventive test on Sphaerotheca fuliginea (powdery mildew on cucurbits); conditions: preventive spray, gherkin plants, grading 12 days after contamination
Protocol: In Vivo Preventive Test on Sphaerotheca fuliginea (Powdery Mildew on Cucurbits)
as §1, §2
After 24 hours, the plants are contaminated by spraying the cotyledons with an aqueous suspension of Sphaerotheca fuliginea spores (100 000 spores per ml). The spores are collected from infected plants. The contaminated gherkin plants are incubated at about 20° C. and at 70-80% relative humidity.
Grading (% of efficacy) is carried out 12 days after the contamination, in comparison with the control plants.

Phakopsora pachyrhizi = test: Phakopsora test (soybeans)/preventive; type: in vivo; conditions: evaluated 7 days after inoculation
Protocol: Phakopsora Test (Soybeans)/Preventive
To produce a suitable preparation of active compound, 1 part by weight of active compound is mixed with the stated amounts of solvent and emulsifier, and the concentrate is diluted with water to the desired concentration.
To test for preventive activity, young plants are sprayed with the preparation of active compound at the stated rate of application. After the spray coating has dried on, the plants are inoculated with an aqueous spore suspension of the causal agent of soybean rust (Phakopsora pachyrhizi) and stay for 24 h without light in an incubation cabinet at approximately 24° C. and a relative atmospheric humidity of 95%.
The plants remain in the incubation cabinet at approximately 24° C. and a relative atmospheric humidity of approximately 80% and a day/night interval of 12 h.
The test is evaluated 7 days after the inoculation. 0% means an efficacy which corresponds to that of the untreated control, while an efficacy of 100% means that no disease is observed.

Uromyces appendiculatus = test: In vivo preventive test on Uromyces appendiculatus (bean rust); conditions: preventive spray, bean plants, grading 11 days after contamination
In short: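 'Saxa' bean plants at the 2-leaf stage were sprayed with compound and inoculated 24 h later with U. appendiculatus spores (150 000 spores per ml). Plants were incubated 24 h at 20 °C and 100% RH, then 10 days at 20 °C and 70–80% RH. Percent efficacy versus solvent-treated controls was graded 11 days post-inoculation.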

Puccinia recondita = test: In vivo preventive test on Puccinia recondita (brown rust on wheat); conditions: wheat, spray, graded 12 days after contamination vs control plants
In short: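 Wheat seedlings ("Scipion") sprayed with compound at the 1-leaf stage, inoculated 24 h later with Puccinia recondita spores (100 000 spores per ml). Incubated 24 h at 20° C and 100% RH, then 10 days at 20° C and 70-80% RH. Efficacy (%) versus solvent-treated controls graded 12 days after contamination.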

[1] = log P by HPLC on reversed phase columns (EEC directive 79/831 Annex V.A8); type: physicochemical; conditions: Table 1, formula (I); HPLC/LC-MS at pH 2.7, 0.1% formic acid in water / acetonitrile, gradient 10% to 95%
Alternaria brassicae = test: In vivo preventive test on Alternaria brassicae (leaf spot on radish); conditions: spray, graded 6 days after contamination vs control plants
Protocol: In Vivo Preventive Test on Alternaria brassicae (Leaf Spot on Radish)
(§3) The active ingredients tested are prepared by homogenization in a mixture of acetone/tween/DMSO, and then diluted with water to obtain the desired active material concentration.
Radish plants (“Pernod Clair” variety), sown in starter cups on a 50/50 peat soil-pozzolana substrate and grown at 17° C., are treated at the cotyledon stage by spraying with the active ingredient prepared as described above. Plants, used as controls, are treated with the mixture of acetone/tween/DMSO/water not containing the active material.
After 24 hours, the plants are contaminated by spraying the cotyledons with an aqueous suspension of Alternaria brassicae spores (50 000 spores per ml). The spores are collected from a 15-day-old culture. The contaminated radish plants are incubated at 20° C. and at 100% relative humidity.
Grading (% of efficacy) is carried out 6 days after the contamination, in comparison with the control plants.

Septoria tritici = test: In vivo preventive test on Septoria tritici (leaf spot on wheat); conditions: 500 ppm, preventive spray, wheat plants, grading 24 days after contamination
Protocol: In Vivo Preventive Test on Septoria tritici (Leaf Spot on Wheat)
as §3
Wheat plants (“Scipion” variety), sown in starter cups on a 50/50 peat soil-pozzolana substrate and grown at 22° C., are treated at the 1-leaf stage (10 cm height) by spraying with the active ingredient prepared as described above. Plants, used as controls, are treated with the mixture of acetone/tween/DMSO/water not containing the active material.
After 24 hours, the plants are contaminated by spraying the leaves with an aqueous suspension of cryopreserved Septoria tritici spores (500 000 spores per ml). The contaminated wheat plants are incubated for 72 hours at 18° C. and at 100% relative humidity, and then for 21 days at 90% relative humidity.
Grading (% of efficacy) is carried out 24 days after the contamination, in comparison with the control plants.

Pyrenophora teres = test: In vivo preventive test on Pyrenophora teres (net blotch on barley); conditions: barley, spray, graded 14 days after contamination vs control plants
Protocol: In Vivo Preventive Test on Pyrenophora teres (Net Blotch on Barley)
as §3
Barley plants (“Plaisant” variety), sown in starter cups on a 50/50 peat soil-pozzolana substrate and grown at 22° C., are treated at the 1-leaf stage (10 cm height) by spraying with the active ingredient prepared as described above. Plants, used as controls, are treated with the mixture of acetone/tween/DMSO/water not containing the active material.
After 24 hours, the plants are contaminated by spraying the leaves with an aqueous suspension of Pyrenophora teres spores (12 000 spores per ml). The spores are collected from a 12-day-old culture. The contaminated barley plants are incubated for 48 hours at 20° C. and at 100% relative humidity, and then for 12 days at 20° C. at 70-80% relative humidity.
Grading (% of efficacy) is carried out 14 days after the contamination, in comparison with the control plants. plants.

logP^[a] [1]: 3.64^[a]
Compound: CCC1(C)CC(C)c2c(NC(=O)c3cccnc3C(F)F)cccc21 (mixture of isomers) [Example 81]
Eff. % (Botrytis cinerea; dose 100 ppm): 100% | Eff. % (Sphaerotheca fuliginea; 100 ppm): 94% | Eff. % (Phakopsora pachyrhizi; 10 ppm of active ingredient): 100% | Eff. % (Uromyces appendiculatus; 100 ppm): 99% | Eff. % (Puccinia recondita; dose 100 ppm): 100% | Eff. % (Alternaria brassicae; dose 100 ppm): 70%

logP^[a] [1]: 3.74^[a]
Compound: CC1CC(C)(C)c2cccc(NC(=S)c3cccnc3C(F)F)c21 (racemic) [Example 9]
Eff. % (Septoria tritici): 98% | Eff. % (Sphaerotheca fuliginea; 500 ppm): 100% | Eff. % (Phakopsora pachyrhizi; 100 ppm of active ingredient): 99% | Eff. % (Uromyces appendiculatus; 500 ppm): 100% | Eff. % (Puccinia recondita; dose 500 ppm): 100% | Eff. % (Pyrenophora teres; dose 500 ppm): 86%

logP^[a] [1]: 3.78^[a]
Compound: CCC1Cc2c(NC(=O)c3cccnc3C(F)F)cccc2C1(C)C (racemic) [Example 37]
Eff. % (Septoria tritici): 97% | Eff. % (Sphaerotheca fuliginea; 500 ppm): 100% | Eff. % (Phakopsora pachyrhizi; 10 ppm of active ingredient): 95% | Eff. % (Uromyces appendiculatus; 500 ppm): 100% | Eff. % (Puccinia recondita; dose 500 ppm): 100% | Eff. % (Alternaria brassicae; dose 500 ppm): 96%

logP^[a] [1]: 4.11^[a]
Compound: CC(C)C1Cc2c(NC(=O)c3cccnc3C(F)F)cccc2C1(C)C (racemic) [Example 43]
Eff. % (Septoria tritici): 86% | Eff. % (Sphaerotheca fuliginea; 500 ppm): 100% | Eff. % (Phakopsora pachyrhizi; 10 ppm of active ingredient): 98% | Eff. % (Uromyces appendiculatus; 500 ppm): 100% | Eff. % (Puccinia recondita; dose 500 ppm): 98% | Eff. % (Alternaria brassicae; dose 500 ppm): 100%

logP^[a] [1]: 3.23^[a]
Compound: CCC1OC(CC)(CC)c2cccc(NC(=O)c3cccnc3C(F)F)c21 (racemic) [Example 71]
Eff. % (Sphaerotheca fuliginea; 100 ppm): 100% | Eff. % (Phakopsora pachyrhizi; 10 ppm of active ingredient): 94% | Eff. % (Uromyces appendiculatus; 100 ppm): 100% | Eff. % (Puccinia recondita; dose 100 ppm): 98% | Eff. % (Pyrenophora teres; dose 100 ppm): 92% | Eff. % (Alternaria brassicae; dose 100 ppm): 88%

logP^[a] [1]: 3.65^[a]
Compound: CC1CC(C(C)C)c2cccc(NC(=O)c3cccnc3C(F)F)c21 (stereo not shown) [Example 3]
Eff. % (Septoria tritici): 90% | Eff. % (Sphaerotheca fuliginea; 500 ppm): 95% | Eff. % (Phakopsora pachyrhizi; 100 ppm of active ingredient): 100% | Eff. % (Uromyces appendiculatus; 500 ppm): 100% | Eff. % (Puccinia recondita; dose 500 ppm): 97% | Eff. % (Pyrenophora teres; dose 500 ppm): 83% | Eff. % (Alternaria brassicae; dose 500 ppm): 86%

logP^[a] [1]: 3.25^[a]
Compound: CC1CC(C)(C)c2cccc(NC(=O)c3cccnc3C(F)F)c21 (stereo not shown) [Example 13]
Eff. % (Septoria tritici): 83% | Eff. % (Sphaerotheca fuliginea; 500 ppm): 100% | Eff. % (Phakopsora pachyrhizi; 100 ppm of active ingredient): 99% | Eff. % (Uromyces appendiculatus; 500 ppm): 100% | Eff. % (Puccinia recondita; dose 500 ppm): 100% | Eff. % (Pyrenophora teres; dose 500 ppm): 100% | Eff. % (Alternaria brassicae; dose 500 ppm): 93%

logP^[a] [1]: 3.33^[a]
Compound: CC1Cc2c(NC(=O)c3cccnc3C(F)F)cccc2C1(C)C (stereo not shown) [Example 14]
Eff. % (Septoria tritici): 97% | Eff. % (Sphaerotheca fuliginea; 500 ppm): 98% | Eff. % (Phakopsora pachyrhizi; 10 ppm of active ingredient): 100% | Eff. % (Uromyces appendiculatus; 500 ppm): 100% | Eff. % (Puccinia recondita; dose 500 ppm): 100% | Eff. % (Pyrenophora teres; dose 500 ppm): 92%

logP^[a] [1]: 4.39^[a]
Compound: CC1CC(CC(C)(C)C)c2cccc(NC(=O)c3cccnc3C(F)F)c21 (stereo not shown) [Example 46]
Eff. % (Botrytis cinerea; dose 500 ppm): 83% | Eff. % (Septoria tritici): 71% | Eff. % (Sphaerotheca fuliginea; 500 ppm): 100% | Eff. % (Phakopsora pachyrhizi; 10 ppm of active ingredient): 90% | Eff. % (Uromyces appendiculatus; 500 ppm): 100% | Eff. % (Puccinia recondita; dose 500 ppm): 98% | Eff. % (Alternaria brassicae; dose 500 ppm): 98%

logP^[a] [1]: 4.15^[a]
Compound: CC(C)CC1CC(C)c2c(NC(=O)c3cccnc3C(F)F)cccc21 (stereo not shown) [Example 57]
Eff. % (Sphaerotheca fuliginea; 500 ppm): 98% | Eff. % (Phakopsora pachyrhizi; 10 ppm of active ingredient): 93% | Eff. % (Uromyces appendiculatus; 500 ppm): 100% | Eff. % (Puccinia recondita; dose 500 ppm): 98% | Eff. % (Pyrenophora teres; dose 500 ppm): 97% | Eff. % (Alternaria brassicae; dose 500 ppm): 97%
